# Data: article PMC3152630 (Pharmaceutical research, 2011)
# System: diabetic rats (blood glucose level, BGL)
# Assay: BGL pharmacodynamics after insulin administration to diabetic rats
# Assay type: in vivo, rat
# Conditions: bolus subcutaneous injection of 0.1 U insulin, unbalanced ANOVA, P < 0.001
substance,measurement,value
Insulin,reduction in BGL compared to untreated controls,significant reduction in BGL
